The source of these data is patent US20250188032A1, “NITROGEN-CONTAINING HETEROCYCLIC COMPOUNDS AND USES THEREOF” (BNH RESEARCH CO., LTD., priority 2022, published 2025).

Series [1] has as its system SH-SY5Y cells. Briefly: Cytotoxicity test (CCK-8 cell viability) in SH-SY5Y cells. Format: cell-based, human. The settings on record: 0, 0.1, 1, 10, 100 μM. The method, then:
(§1) Human undifferentiated neuroblastoma cell line SH-SY5Y and human embryonic kidney cell line (HEK)-293T were purchased from Korean Cell Line Bank (Korea) and Takara (Japan), respectively. Cells were grown in HyClone Minimal Essential Medium (MEM) and Dulbecco's Modified Eagle Medium (DMEM), respectively, supplemented with 10% (v/v) fetal bovine serum (FBS), penicillin (100 U/mL), and streptomycin ([…]). Cells were maintained in a humidified atmosphere of 95% air and 5% CO2 at 37° C. Cells were passaged 10 times at maximum. Cells were dissociated using 0.05% trypsin-EDTA solution and the cells were seeded in new culture dishes for maintenance.
To examine the cytotoxicity of compounds described herein in human cell lines, SH-SY5Y and 293T cells were used. […] Finally, 10 μL of CCK-8 reagent (Dojindo Laboratories, Rockville, MD) was added to each well, and after incubation at 37° C. for 3 minutes, the OD at 450 nm was measured using a multifunction microplate reader (Tecan Infinite M200 Pro). These measurements were compared to that of a control and expressed as a percentage of the control to calculate cell viability. The IC50 value was calculated using SPSS software. To do this, the absorbance of the blank wells with only growth medium is subtracted from the values or the wells with cells. […]

Series [2] concerns the target HDAC1 (Homo sapiens, UniProt Q13547). Briefly: HDAC catalytic activity, fluorogenic substrate. To be noted: 10-dose, 3-fold serial dilution starting at 100 μM, duplicates. The series is classed as biochemical. As to the method: The compound (racemate) was resuspended in 100 mM DMSO and tested in a 10-dose IC50 with 3-fold serial dilution starting at 100 μM against HDACs 1-9, and 11. As reference compounds, Trichostatin A (TSA) and TMP269 were tested in a 10-dose IC50 with 3-fold serial dilution starting at 10 μM or 1 μM.
10 μM Fluorogenic peptide from p53 residues 379-382 (RHKK(Ac)AMC) was used for the substrate for HDAC 1, 2, 3, and 6, 50 μM Fluorogenic HDAC Class2a Substrate (Trifluoroacetyl Lysine) was used for the substrate for HDAC 4, 5, 7, 9, and 11, 100 μM Fluorogenic peptide from p53 residues 379-382 (RHK(Ac)K(Ac)AMC) was used for the substrate for HDAC8.
IC50 values were calculated using the GraphPad Prism 4 program based on a sigmoidal dose-response equation and the blank (DMSO) value concentration was entered as 1.00E-12 M for curve fitting.

Series [3] deals with BDNF and GluN2B expression in SH-SY5Y cells. Briefly: Expression of BDNF and GluN2B in SH-SY5Y cells. Format: cell-based, human. To be noted: 1 μM, application for 6 and 24 hours. The method, then:
as §1

Chain of HDAC1 (Q13547 whole entry, the tested form may be a part): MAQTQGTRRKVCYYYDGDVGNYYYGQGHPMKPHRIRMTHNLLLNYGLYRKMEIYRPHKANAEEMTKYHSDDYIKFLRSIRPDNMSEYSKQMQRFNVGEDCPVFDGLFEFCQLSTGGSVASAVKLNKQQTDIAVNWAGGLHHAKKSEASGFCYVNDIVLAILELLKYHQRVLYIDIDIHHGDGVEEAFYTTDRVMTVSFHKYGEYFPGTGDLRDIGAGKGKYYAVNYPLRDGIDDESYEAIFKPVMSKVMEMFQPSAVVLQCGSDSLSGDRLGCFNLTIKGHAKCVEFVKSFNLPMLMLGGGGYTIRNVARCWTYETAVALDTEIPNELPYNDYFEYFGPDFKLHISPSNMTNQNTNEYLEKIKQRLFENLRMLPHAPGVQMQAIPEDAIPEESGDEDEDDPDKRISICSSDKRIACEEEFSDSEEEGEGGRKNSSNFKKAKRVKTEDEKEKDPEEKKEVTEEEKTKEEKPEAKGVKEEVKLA

Turning to `CC1CCC(C(=O)O)CN1C(=O)Cc1ccc(F)cc1Cl` (racemic) [BnH12001, 1-(2-(2-chloro-4-fluorophenyl)acetyl)-6-methylpiperidine-3-carboxylic acid], the “Change in cell viability” value in series [1] is “no significant change in cell viability”. For the same molecule, the “Inhibitory effect on HDAC1 catalytic activity” value in series [2] is listed as “did not show any inhibitory effect”. Also, in series [3], the BDNF expression entry is “augmented” and the GluN2B expression result is “augmented”.
